Where two headings read alike, the source gives them in different places. Starred links: 1 amine or outer side, 2 acyl side, 3 side chain; linkers in the order of their positions; H or OH if unused. Non-standard residues stand in square brackets, D forms with d. Groups on a side chain read outwards from the residue. No end group written: not given here. *: point of attachment. C18 diacid = O=C(O)CCCCCCCCCCCCCCCCC(=O)*; γGlu = O=C(O)[C@H](CCC(=O)[*:2])N[*:1]; 4Pal = N[C@@H](Cc1ccncc1)C(=O)O; αMeL = CC(C)C[C@](C)(N)C(=O)O; Orn = NCCC[C@H](N)C(=O)O; AEEA = NCCOCCOCC(=O)O; Aib = CC(C)(N)C(=O)O
What was measured:
Format in all cases: cell-based
hGIPR [1] = molecular target: T1, hGIPR (Homo sapiens, UniProt P48546); assay: Functional cAMP activation in the presence of 0.1% casein (no HSA);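 further: intracellular cAMP rise after 30 min at 37 °C read by HTRF against a standard curve, scaled between buffer alone (0%) and top control ligand concentration (100%), four-parameter fit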
T1 sequence (P48546 22-466): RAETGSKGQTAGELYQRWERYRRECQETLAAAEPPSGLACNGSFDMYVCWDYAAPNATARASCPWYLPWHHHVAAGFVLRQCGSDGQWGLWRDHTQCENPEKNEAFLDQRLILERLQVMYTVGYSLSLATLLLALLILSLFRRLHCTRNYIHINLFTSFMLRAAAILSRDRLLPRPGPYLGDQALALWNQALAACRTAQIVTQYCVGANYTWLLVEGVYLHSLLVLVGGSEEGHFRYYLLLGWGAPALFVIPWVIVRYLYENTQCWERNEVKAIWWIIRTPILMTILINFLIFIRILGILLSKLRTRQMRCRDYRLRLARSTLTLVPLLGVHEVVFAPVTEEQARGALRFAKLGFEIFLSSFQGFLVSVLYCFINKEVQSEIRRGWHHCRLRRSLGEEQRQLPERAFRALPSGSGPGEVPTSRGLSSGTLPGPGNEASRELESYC

hGIPR [2] = molecular target: T1, hGIPR; assay: Functional cAMP activity in the presence of 1% HSA
human GLP1-R = human GLP1-R (Homo sapiens, UniProt P43220); assay: GLP1-R internalization assay in HEK293 cells; settings: for Internalization % TOP: normalized to maximum concentration of GLP-1 (100%)
Sequence of human GLP1-R (P43220 24-463): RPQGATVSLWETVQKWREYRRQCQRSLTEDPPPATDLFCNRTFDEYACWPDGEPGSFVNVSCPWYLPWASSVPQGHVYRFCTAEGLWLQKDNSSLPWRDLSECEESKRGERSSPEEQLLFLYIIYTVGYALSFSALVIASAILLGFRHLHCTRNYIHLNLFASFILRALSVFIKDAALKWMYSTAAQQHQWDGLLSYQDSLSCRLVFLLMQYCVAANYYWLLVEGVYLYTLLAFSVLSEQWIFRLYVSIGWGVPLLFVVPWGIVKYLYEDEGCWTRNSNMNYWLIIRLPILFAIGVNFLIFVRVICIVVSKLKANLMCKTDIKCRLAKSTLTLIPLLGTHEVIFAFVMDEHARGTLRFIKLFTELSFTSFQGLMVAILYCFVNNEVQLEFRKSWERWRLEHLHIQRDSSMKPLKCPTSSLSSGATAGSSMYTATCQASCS

human GcgR = human GcgR (Homo sapiens, UniProt P47871); assay: Functional cAMP activity in the presence of 1% HSA
Sequence of human GcgR (P47871 26-477): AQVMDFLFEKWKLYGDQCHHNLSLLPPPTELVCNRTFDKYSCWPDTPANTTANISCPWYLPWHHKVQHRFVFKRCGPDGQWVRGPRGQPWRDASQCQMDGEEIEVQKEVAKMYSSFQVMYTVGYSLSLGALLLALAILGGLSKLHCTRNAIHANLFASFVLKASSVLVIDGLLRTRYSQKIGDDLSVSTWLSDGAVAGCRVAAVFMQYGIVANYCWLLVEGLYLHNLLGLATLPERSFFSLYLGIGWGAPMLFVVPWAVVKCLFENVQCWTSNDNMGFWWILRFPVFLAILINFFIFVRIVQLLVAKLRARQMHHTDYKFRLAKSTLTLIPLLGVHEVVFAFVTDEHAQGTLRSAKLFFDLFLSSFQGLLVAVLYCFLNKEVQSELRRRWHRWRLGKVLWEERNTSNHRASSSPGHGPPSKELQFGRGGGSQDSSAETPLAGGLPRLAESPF

hGLP-1R [3] = molecular target: T2, hGLP-1R (Homo sapiens, UniProt P43220); assay: Functional cAMP activation in the presence of 0.1% casein (no HSA);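 further: intracellular cAMP rise after 30 min at 37 °C read by HTRF, normalized between buffer only (0%) and maximal control ligand (100%), four-parameter variable-slope fit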
T2 sequence (P43220 24-463): as the sequence (P43220 24-463) above

hGcgR = hGcgR (Homo sapiens, UniProt P47871); assay: as above;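 further: intracellular cAMP rise after 30 min at 37 °C, read by HTRF against a cAMP standard curve, scaled from buffer only (0%) to maximal control ligand response (100%)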
Sequence of hGcgR (P47871 26-477): as the sequence (P47871 26-477) above

hGLP-1R [4] = molecular target: T2, hGLP-1R; assay: Functional cAMP activity in the presence of 1% HSA
[5] = in the presence of 0.1% casein (no HSA), geometric mean, read-out: Relative cAMP EC50, hGIPR
[6] = HEK293 cells expressing SNAP-GLP-1R, read-out: GLP1R Internalization EC50
[7] = in the presence of 0.1% casein (no HSA), geometric mean, read-out: Relative cAMP EC50, hGLP-1R
[8] = in the presence of 0.1% casein (no HSA), geometric mean, read-out: Relative cAMP EC50, hGcgR
[9] = read-out: cAMP Rel EC50, hGLP-1R

Compound | EC50 (hGIPR [1]; [5]) [nM] | EC50 (hGIPR [2]; read-out: cAMP Rel EC50, hGIPR) [nM] | EC50 (human GLP1-R; [6]) [nM] | Internalization % TOP (human GLP1-R) [%] | EC50 (human GcgR; read-out: cAMP Rel EC50, hGcgR) [nM] | EC50 (hGLP-1R [3]; [7]) [nM] | EC50 (hGcgR; [8]) [nM] | EC50 (hGLP-1R [4]; [9]) [nM] | EC50 (hGIPR [1]) [nM] | EC50 (hGIPR [2]) [nM] | EC50 (human GLP1-R) [nM] | EC50 (human GcgR) [nM] | EC50 (hGLP-1R [3]) [nM] | EC50 (hGcgR) [nM] | EC50 (hGLP-1R [4]) [nM]
Y[Aib]QGTFTSDFS[Orn][αMeL]LDKK([AEEA-AEEA-γGlu-C18 diacid])AQ[Aib]AFIEYLLE[dA]GPSSG[4Pal]PPPSGS-NH2 [Example 254] | 0.121 | 21.4 | 31.9 | 47.8 | 767 | 3.08 | 4.9 | 265 | – | – | – | – | – | – | –
H-Y[Aib]QGTFTSDFS[Orn][αMeL]LDKK([AEEA-AEEA-γGlu-C18 diacid])AQ[Aib]AFIEYLLEGGPSSGAPPPGES-NH2 [Example 118] | 0.43 | 63.4 | 82.3 | 46.4 | 2460 | 6.03 | 7.02 | 1450 | – | – | – | – | – | – | –
H-Y[Aib]QGTFTSDFS[Orn][αMeL]LDKK([AEEA-γGlu-C18 diacid])AQ[Aib]AFIEYLLAGGPSSGEPPPSGE-NH2 [Example 97] | 0.176 | 23.9 | 51.9 | 50.7 | 1270 | 3.23 | 6.73 | 605 | – | – | – | – | – | – | –
H-Y[Aib]QGTFTSDFS[Orn][αMeL]LDKK([AEEA-γGlu-C18 diacid])AQ[Aib]AFIEYLLAGGPSSGAPPPSGS-NH2 [Example 95] | 0.116 | 18.2 | 37.8 | 49.3 | 1130 | 1.95 | 8.41 | 380 | – | – | – | – | – | – | –
H-Y[Aib]QGTFTSDFS[Orn][αMeL]LDKK([AEEA-AEEA-γGlu-C18 diacid])AQ[Aib]AFIEYLLE[Aib]GPSSGEPPPSGT-NH2 [Example 167] | 0.101 | 24.7 | 75.9 | 44.7 | 938 | 6.19 | 5.05 | 1300 | – | – | – | – | – | – | –
H-Y[Aib]QGTFTSDFS[Orn][αMeL]LDKK([AEEA-γGlu-γGlu-C18 diacid])AQ[Aib]AFIEYLLE[Aib]GPSSGAPPPSGT-NH2 [Example 278] | 0.0963 | 7.69 | 251 | 68.6 | 274 | 4.11 | 4.45 | 241 | – | – | – | – | – | – | –
H-Y[Aib]QGTFTSDFS[Orn][αMeL]LDKK([AEEA-γGlu-C18 diacid])AQ[Aib]AFIEYLLE[Aib]GPSSGAPPPSGS-NH2 [Example 74] | 0.0708 | 15.9 | 72.7 | 53.3 | 709 | 3.32 | 2.53 | 627 | – | – | – | – | – | – | –
H-Y[Aib]QGTFTSDFS[Orn][αMeL]LDKK([AEEA-γGlu-C18 diacid])AQ[Aib]AFIEYLIE[Aib]GESSGAPPPSGE-NH2 [Example 219] | 0.119 | 23.3 | 48 | 37.2 | 1870 | 0.835 | 7.77 | 221 | – | – | – | – | – | – | –
CC[C@H](C)[C@H](NC(=O)[C@H](Cc1ccccc1)NC(=O)[C@H](C)NC(=O)[C@](C)(Cc1ccncc1)NC(=O)[C@H](CCC(N)=O)NC(=O)[C@H](C)NC(=O)[C@H](CCCCNC(=O)COCCOCCNC(=O)CC[C@H](NC(=O)CCCCCCCCCCCCCCCCC(=O)O)C(=O)O)NC(=O)[C@H](CCCCN)NC(=O)[C@H](CC(=O)O)NC(=O)[C@H](CC(C)C)NC(=O)[C@](C)(CC(C)C)NC(=O)[C@H](CCCNC(=N)N)NC(=O)[C@H](CO)NC(=O)[C@H](Cc1ccccc1)NC(=O)[C@H](CC(=O)O)NC(=O)[C@H](CO)NC(=O)[C@@H](NC(=O)[C@H](Cc1ccccc1)NC(=O)[C@@H](NC(=O)CNC(=O)[C@H](CCC(N)=O)NC(=O)C(C)(C)NC(=O)[C@@H](N)Cc1ccc(O)cc1)[C@@H](C)O)[C@@H](C)O)C(=O)N[C@@H](CCC(=O)O)C(=O)N[C@@H](Cc1ccc(O)cc1)C(=O)N[C@@H](CC(C)C)C(=O)N[C@H](C(=O)N[C@@H](CCC(=O)O)C(=O)NC(C)(C)C(=O)NCC(=O)N[C@@H](CCC(=O)O)C(=O)N[C@@H](CO)C(=O)N[C@@H](CO)C(=O)NCC(=O)N[C@@H](C)C(=O)N1CCC[C@H]1C(=O)N1CCC[C@H]1C(=O)N1CCC[C@H]1C(=O)N[C@@H](CO)C(=O)NCC(=O)N[C@@H](CO)C(N)=O)[C@@H](C)CC [Example 230] | – | – | – | 31.2 | – | – | – | – | 0.0909 | 21.6 | 34.4 | 388 | 0.937 | 1.61 | 199
Y[Aib]QGTFTSDFSK[αMeL]LDKK([AEEA-γGlu-C18 diacid])AQ[Aib]AFIEYLLEGGPSSGAPPPSEG-NH2 [Example 48] | 0.27 | 46.9 | 44 | 55.2 | 728 | 2.99 | 3.8 | 570 | – | – | – | – | – | – | –
H-Y[Aib]QGTFTSDFS[Orn][αMeL]LDKK([AEEA-γGlu-C18 diacid])AQ[Aib]AFIEYLLAGGPSSGAPPPSGD-NH2 [Example 85] | 0.157 | 22.1 | 326 | 48.3 | 1270 | 2.73 | 7.63 | 387 | – | – | – | – | – | – | –
H-Y[Aib]QGTFTSDFS[Orn][αMeL]LDKK([AEEA-γGlu-C18 diacid])AQ[Aib]AFIEYLLAGGPSSGAPPPSGSE-NH2 [Example 90] | 0.173 | 24.9 | 70.8 | 49.8 | 990 | 2.68 | 9.58 | 371 | – | – | – | – | – | – | –
H-Y[Aib]QGTFTSDYSQ[αMeL]LDKK([AEEA-γGlu-C18 diacid])AQ[Aib]AFIEYLLEGGESSGAPPPSGS-NH2 [Example 362] | 0.262 | 38.7 | 22.8 | 77.5 | 1450 | 1.77 | 6.04 | 450 | – | – | – | – | – | – | –
